Test results from patent publication US20020052408A1, “Methods for protection of stratified squamous epithelium against injury by noxious substances and novel agents for use therefor” (priority 2000, published 2002).

Legend:
[1] = system: rabbit esophageal epithelium; experiment: Ussing chamber method for assessing esophageal epithelial protection against acid injury (60 mM HCl, pH 1.6, decline in electrical resistance R); format: cell-based; settings: for protection against acid injury after brief luminal exposure: 1 min exposure to 4 mM agent, multiple washouts over 4 hours, FIG. 5; for lowest protective dose: pH 1.6, 1 hour; for protective activity, Resistance Index (RI)=[(Ragent/Rcontrol)-1], RI >0.2 considered significant: 2, 4 and/or 8 mM for 15 min, 30 min and/or >30 min before 60 mM HCl pH 1.6 for 1 hour, N=1 tissue/dose, FIG. 9; for protective effect, single exposure: single 1 min exposure
Text: Previously, a test system was developed in the Ussing chamber to identify and characterize agents with cytoprotective effects against acid injury to the tissue. Briefly, the esophageal epithelium is mounted in the Ussing chamber so that acid (or acid-pepsin) could be added to the luminal bath while monitoring changes in electrical resistance (R). The changes in R are an effective means to identify damage by acid or acid-pepsin since damage is heralded by an increase in paracellular permeability and this reflected by a decline in R. In effect, the ability of an agent or compound to prevent the acid-induced decline in R without altering luminal pH (which excludes protection being mediated by acid buffering or neutralization) is evidence for a cytoprotective effect, i.e. protection directly exerted by the agent or compound on the epithelium. Further, we previously established that the ability of an agent or compound to prevent the acid-induced decline in R in this Ussing chamber model of acid injury was an accurate predictor, and therefore surrogate marker, of its ability to protect rabbit esophageal epithelium against acid injury in vivo (U.S. Pat. Nos. 5,374,537 and 5,189,056).
(§1) New Zealand white rabbits weighing between 8-9 lbs are sacrificed by administering an intravenous overdose of phenobarbital (60 mg/mL). The esophagus is excised, opened, and pinned mucosal surface down in a paraffin tray containing ice-Cold oxygenated normal Ringer's solution. The submucosa is grasped with hemostats, lifted up, and dissected free of the underlying mucosa with a scalpel. This process yields a sheet of tissue consisting of stratified squamous epithelium and a small amount of underlying connective tissue. From this tissue, four sections are cut and mounted as flat sheets between Lucite half-Chambers with an aperture of 1.13 cm^2 for measurements of potential difference (PD), short circuit current (Isc) and, from these values, calculation of transmucosal electrical resistance (R). Tissues are bathed with normal Ringer solution composed of the following (in mmol/L): Na 140; Cl 119.8; K 5.2; HCO3 25; Ca 1.2; Mg 1.2; HPO4 2.4; H2PO4 0.4; and 268 mOsm/kg water, with pH 7.5 when gassed with 95% O2/5% CO2 at 37° C. Mucosal and serosal solutions are connected to calomel and Ag—AgCl electrodes with Ringer's-agar bridges for measurements of PD and automatic short-Circuiting of the tissue with a voltage clamp (World Precision Instruments Inc., Sarasota, Fla.). Tissues are monitored continuously in the open-circuit state except for 5-10 second periods when the Isc is read. Electrical resistance (R) was calculated using Ohm's Law from the open-circuit PD and Isc.
To test the protective effect of an agent against acid injury to esophageal epithelium, 45 minutes after mounting (equilibration period), tissues paired by R had for one of the pair varying amounts of an agent added to the luminal bath while the other part of the pair received vehicle (normal Ringer solution) as control. After varying periods of exposure to the agent, 60 mM HCl was added to the luminal (mucosal) solution to reduce pH to 1.6; the pH was monitored and maintained throughout the 1 hr of exposure for all tissues to ensure uniform risk of injury. This negated any protective effect as being due to buffering by the agent. In some experiments the power of the protective effect of an agent was determined after varying periods of luminal exposure by washout prior to acid exposure, i.e. replacement of the luminal bath containing agent with normal Ringer Solution that contained only vehicle. R was then monitored before and during acidification with 60 mM HCl and the results for agent and controls presented as percent decline in R from pre-acidification values. […]

[2] = system: rabbit esophageal epithelium; experiment: In vivo delivery of agent in drinking water, then Ussing chamber acid injury test (60 mM HCl, pH 1.6); settings: for protective effect after in vivo delivery in drinking water: rabbit, acid on day 5
Protocol: as §1
(§2) New Zealand white rabbits weighing between 8-9 lbs were given 25 ml of water containing test agent or water alone (control) to drink once each morning on 4 consecutive days. Following consumption of the 25 ml of water, the rabbits had their normal water source restored and they ate and drank normally for the remainder of each day. Twenty-four hours after the last dose, the rabbits were sacrificed by administering an intravenous overdose of phenobarbital (60 mg/mL). The esophagus was excised and processed as above to test its ability to resist acid injury upon exposure to 60 mM HCl , pH 1.6, for 1 hr. Three sections of rabbit esophageal epithelium that had been exposed to test agent and three sections exposed to water alone (control) were mounted, equilibrated and then simultaneously exposed to acid on the same day without the operator being aware of which were treated and which were control sections of epithelium. Initial R values in all experiments were similar preacidification. […] Significance was taken as a difference in values of p<0.05.

[3] = system: rabbit esophageal epithelium; experiment: In vivo delivery of agent in drinking water, then Ussing chamber acid-pepsin injury test (60 mM HCl, pH 1.6, 1 mg/ml pepsin); settings: FIG. 12
Protocol: as §2
FIG. 12 is a graph showing the protective effect against an acid-pepsin mixture after in vivo delivery of CDDD-1193 in drinking water. A rabbit spontaneously drank 25 ml of water containing 0.6 mg (40 μM) or 0.06 mg (4 μM) CDDD-1193 once-a-day for 4 consecutive days or water alone. On day 5, the rabbits were sacrificed and three sections of esophageal epithelium mounted in Ussing chambers from each rabbit. After equilibration in Ringer solution, all tissues were acidified by luminal addition of 60 mM HCl , pH 1.6, containing 1 mg/ml pepsin, for 1 hour. Electrical resistance, R, was monitored and plotted as percent initial R (%) at the end of 1 hour of acid-pepsin exposure. […] N=3 tissues; * p<0.05 compared to controls.

[4] = then 60 mM HCl pH 1.6 for 1 hour
[5] = agent in luminal bath 30 min before and continuously during 60 mM HCl, R as % of initial R, FIG. 1, 2

O=S(=O)(O)OC[C@H]1O[C@@](COS(=O)(=O)O)(O[C@H]2O[C@H](COS(=O)(=O)O)[C@@H](OS(=O)(=O)O)[C@H](OS(=O)(=O)O)[C@H]2OS(=O)(=O)O)[C@@H](OS(=O)(=O)O)[C@@H]1OS(=O)(=O)O [SOS, sucrose octasulfate, reference compound]
protection against acid injury after brief luminal exposure [1, 4]: retain significant protection | lowest protective dose [1, 5]: 1 mM

O=S(=O)([O-])OCC(Oc1ccccc1)c1ccccc1.[Na+] (centres unmarked) [CDDD-1185, 2-Phenoxy-2-phenylethanesulfate, sodium salt]
protective activity, Resistance Index (RI)=[(Ragent/Rcontrol)-1], RI >0.2 considered significant [1]: may have significant protective activity

O=S(=O)([O-])OCC(Oc1ccc(Cl)cc1S(=O)(=O)[O-])c1ccccc1.[Na+].[Na+] (centres unmarked) [CDDD-1188, 2-(4-Chloro-2-sulfophenoxy)-2-phenylethanesulfate, disodium salt]
protective activity, Resistance Index (RI)=[(Ragent/Rcontrol)-1], RI >0.2 considered significant [1]: may have significant protective activity

CC(=O)Nc1ccc(C=Cc2ccc(N=C=S)cc2S(=O)(=O)O)c(S(=O)(=O)O)c1 [SITS, 4-acetamido-4′-isothiocyanatostilbene-2-2′-disulfonic acid, reference compound]
protection against acid injury after brief luminal exposure [1, 4]: retain significant protection | lowest protective dose [1, 5]: 0.1 mM | protective effect after in vivo delivery in drinking water ([2]; 4 mM (50 mg in 25 ml water) once-a-day for 4 days, FIG. 11): significantly protective | duration of protective effects after the last dose ([2]; 4 mM in drinking water once-a-day for 4 days, FIG. 11): at least 24 hrs

O=S(=O)(O)OC[C@@H](OS(=O)(=O)O)[C@@H](Oc1ccccc1)c1ccccc1.[Na].[Na] [CDDD-1187, (2R, 3S)-3-Phenoxy-3-phenylpropane-1,2-disulfate, disodium salt]
protective activity, Resistance Index (RI)=[(Ragent/Rcontrol)-1], RI >0.2 considered significant [1]: may have significant protective activity

O=S(=O)(O)OC[C@H](OS(=O)(=O)O)[C@H](Oc1ccc(N=C=S)cc1)c1ccc(N=C=S)cc1.[Na].[Na] [CDDD-1193, Disodium (2S, 3R)-3-(4-isothiocyanophenoxy)-3-(4-isothiocyanatophenyl)propane-1,2-disulfate]
protective effect, repeated exposures ([1]; 400 nM, 1 min every 5 min times ten exposures, then 60 mM HCl pH 1.6 for 1 hour, FIG. 7): protective | protective effect, single exposure ([1]; 400 nM, then 60 mM HCl pH 1.6 for 1 hour, FIG. 7): little protection | protective effect, repeated exposures ([1]; 1 μM, 1 min every 5 min times 5 or ten exposures, then 60 mM HCl pH 1.6 for 1 hour, FIG. 8): cumulative with repeated exposures | protective effect, single exposure ([1]; 1 μM, then 60 mM HCl pH 1.6 for 1 hour, FIG. 8): modestly protective | protection against acid injury after brief luminal exposure [1, 4]: retain significant protection | protective effect after brief luminal exposure ([1]; 1 min exposure to 4 mM, multiple washouts over 8 hours, then 60 mM HCl pH 1.6 for 1 hour, FIG. 6): substantial | persistence of protective effect ([1]; 1 min exposure to 4 mM, repeated washes before 60 mM HCl pH 1.6, FIG. 6): 8 h | lowest protective dose ([1]; agent in luminal bath 30 min before and during 60 mM HCl, FIG. 4): 4e-05 mM | protective effect after in vivo delivery in drinking water ([2]; 4 μM (0.06 mg in 25 ml water) once-a-day for 4 days, FIG. 10B): significantly protective | duration of protective effects after the last dose ([2]; 4 μM in drinking water once-a-day for 4 days, FIG. 10B): at least 24 hrs | protective effect after in vivo delivery in drinking water ([2]; 40 μM (0.6 mg in 25 ml water) once-a-day for 4 days, FIG. 10A): significantly protective | duration of protective effects after the last dose ([2]; 40 μM in drinking water once-a-day for 4 days, FIG. 10A): at least 24 hrs | protective effect against acid-pepsin after in vivo delivery in drinking water ([3]; 4 μM (0.06 mg in 25 ml water) once-a-day for 4 days): significantly protective | protective effect against acid-pepsin after in vivo delivery in drinking water ([3]; 40 μM (0.6 mg in 25 ml water) once-a-day for 4 days): significantly protective | duration of protective effect against acid-pepsin after the last dose ([3]; 40 μM and 4 μM in drinking water once-a-day for 4 days): at least 24 hours

O=S(=O)(O)OCC(OS(=O)(=O)O)C(Oc1ccccc1)c1ccc(N=C=S)cc1 [CDDD-1192, Disodium (2S, 3R)-3-(4-isothiocyanatophenyl)-3-phenoxypropane-1,2-disulfate]
protection against acid injury after brief luminal exposure [1, 4]: retain significant protection | lowest protective dose ([1]; agent in luminal bath 30 min before and during 60 mM HCl, FIG. 3): 0.004 mM
